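Step 1: Grow cells in 96-well plates. Step 2: Expose to compound for 48 hours at 5 concentrations. Step 3: Interpolate endpoints linearly; if unreached, use highest concentration. Abbreviation: GI50, concentration required for 50% inhibition of growth.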 Activity calls are given as the source filed them. Cut-off read from the data, not from the text of the source: active = GI50 up to about 1.1 µM and inactive = higher. Bounds are passed on as bounds.

Assay in all cases: growth of human tumour cells (NCI), 48 h
The subject of experiment [1] is NCI/ADR-RES.
The subject of experiment [2] is CAKI-1.
Experiment [3] relates to IGROV-1.
Experiment [4] relates to Malme-3M.
For experiment [5], the system named is ACHN.
Experiment [6] has as its system OVCAR-5.
Experiment [7] has as its system SK-MEL-5.
Experiment [8] deals with Hs-578T.
In experiment [9] the test system is MDA-MB-231.
Experiment [10] deals with SF-268.
Experiment [11] deals with PC-3.
For experiment [12], the system named is NCI-H23.
Experiment [13] concerns T47D.
The test system of experiment [14] is COLO 205.
Experiment [15] has as its system HCT-116.
The test system of experiment [16] is DU-145.
The subject of experiment [17] is A498.
For experiment [18], the system named is NCI-H460.
Experiment [19] deals with K562.

In the case of `COC(=O)Cc1c(C2=Nc3ccccc3C2(O)CC(=O)OC)[nH]c2ccccc12` (stereo unspecified), the GI50 in experiment [1] is > 100 µM (inactive); in experiment [2] it was 23 µM (inactive); in experiment [3] it was 1.09 µM (active); in experiment [4], 22.6 µM (inactive); in experiment [5], 34.9 µM (inactive); in experiment [6], 54.6 µM (inactive). Besides, the GI50 was 60.4 µM (inactive) in [7]; 24.2 µM (inactive) in experiment [8]; 45.2 µM (inactive) in experiment [9]; > 100 µM (inactive) in experiment [10]; 30 µM (inactive) in experiment [11]; > 100 µM (inactive) in experiment [12]. Also, the GI50 in [13] was 15.5 µM (inactive); in experiment [14], 20.3 µM (inactive); in experiment [15], 31.8 µM (inactive); in [16], > 100 µM (inactive); in experiment [17], > 100 µM (inactive); in [18], > 100 µM (inactive). Also, the GI50 in experiment [19] is 27 µM (inactive).

As for `Cc1nnc(N2C(=O)C(=Cc3ccc(Cl)cc3)N=C2c2ccc(Cl)cc2)nc1/C=C\c1ccc(N(C)C)cc1`, the GI50 in [1], in experiment [2], in experiment [3], in experiment [4], in experiment [5] and in experiment [6] was > 100 µM (inactive) each time. Also, the GI50 in [7], in experiment [8], in experiment [9], in experiment [10], in [11] and in experiment [12] was > 100 µM (inactive) throughout. The GI50 in [13], in experiment [14], in [15], in experiment [16], in experiment [17] and in experiment [18] was > 100 µM (inactive) throughout. In addition, the GI50 in experiment [19] was 73.3 µM (inactive).

For `COc1ccc(-n2c(C)nc3ccc(NC4OCC(OC(C)=O)C(OC(C)=O)C4OC(C)=O)cc3c2=O)cc1` (stereo unspecified), the GI50 in [1], in experiment [2], in experiment [3], in [4], in experiment [5] and in experiment [6] was > 100 µM (inactive) in each case. Also, the GI50 in [7], in experiment [8], in experiment [9], in [10], in [11] and in [12] was > 100 µM (inactive) each time. The GI50 in [13], in experiment [14], in experiment [15], in [16], in experiment [17] and in [18] was > 100 µM (inactive) throughout. Besides, the GI50 in experiment [19] is > 100 µM (inactive).

On to `O=P1(c2ccccc2)C(c2ccccc2)=CC=C1c1ccccc1`, for which the GI50 is 30.7 µM (inactive) in [1]; 50.7 µM (inactive) in experiment [2]; 39.8 µM (inactive) in experiment [3]; 27.3 µM (inactive) in [4]; 28 µM (inactive) in experiment [5]; 20.9 µM (inactive) in experiment [6]. Besides, the GI50 in experiment [7] is 6.24 µM (inactive); in [8], 37.8 µM (inactive); in experiment [9] it was 36.7 µM (inactive); in experiment [10], 24.5 µM (inactive); in experiment [11] it was 15.3 µM (inactive); in [12], 21.5 µM (inactive). Moreover, the GI50 was 8.95 µM (inactive) in [13]; 15 µM (inactive) in experiment [14]; 9.25 µM (inactive) in experiment [15]; 41.8 µM (inactive) in experiment [16]; 16.8 µM (inactive) in [17]; 11.6 µM (inactive) in experiment [18]. Besides, the GI50 in experiment [19] was 3.95 µM (inactive).

These data come from ChEMBL document CHEMBL1201862, “PubChem BioAssay data set” (2004).
